Test results: US12544395B2, “Combination compositions comprising a beta-lactamase inhibitor and uses thereof” (priority 2018, dated 2026)

Experiments:
Assay type in all cases: cell-based
[1] = tested on: E. coli 2806; assay: Broth microdilution MIC (strain enzymes: SHV-12, TEM-1)
[2] = tested on: E. coli 3327; assay: Broth microdilution MIC (strain enzymes: TEM-1, SHV-12)
[3] = tested on: E. coli ESBL 2; assay: Broth microdilution MIC (strain enzymes: TEM-1)
[4] = tested on: E. coli ESBL 4; assay: Broth microdilution MIC (strain enzymes: CTX-M15, TEM-1)
[5] = tested on: E. coli SI-AIRT-4; assay: Broth microdilution MIC (strain enzymes: TEM-1)
[6] = tested on: E. coli Si-FDL-GES; assay: microbe, parasite or virus in culture
[7] = tested on: E. coli 25922; assay: Broth microdilution MIC (strain enzymes: None detected)
[8] = tested on: K. oxytoca 169219; assay: Broth microdilution MIC (strain enzymes: TEM-1, CTXM-15)
[9] = tested on: K. pneumoniae 115468; assay: Broth microdilution MIC (strain enzymes: TEM-1)
[10] = tested on: K. pneumoniae ESBL 7 #1; assay: Broth microdilution MIC (strain enzymes: SHV-12, TEM-1)

SMILES: CCC(=O)N[C@H]1Cc2cccc(C(=O)O)c2OB1O [Compound 2, (R)-2-hydroxy-3-propionamido-3,4-dihydro-2H-benzo[e][1,2]oxaborinine-8-carboxylic acid]
- MIC of cefalexin (LEX) ([1]; with inhibitor at 1 μg/mL): 0.125 µg/mL
- MIC of cefdinir (CDR) ([1]; with inhibitor at 1 μg/mL): 0.125 µg/mL
- MIC of cefixime (CFM) ([1]; with inhibitor at 1 μg/mL): 0.25 µg/mL
- MIC of ceftibuten (CTB) ([1]; with inhibitor at 1 μg/mL): 0.06 µg/mL
- MIC of cefalexin (LEX) ([1]; with inhibitor at 2 μg/mL): 0.125 µg/mL
- MIC of cefdinir (CDR) ([1]; with inhibitor at 2 μg/mL): 0.125 µg/mL
- MIC of cefixime (CFM) ([1]; with inhibitor at 2 μg/mL): 0.125 µg/mL
- MIC of ceftibuten (CTB) ([1]; with inhibitor at 2 μg/mL): 0.125 µg/mL
- MIC of cefalexin (LEX) ([1]; with inhibitor at 4 μg/mL): 0.25 µg/mL
- MIC of cefdinir (CDR) ([1]; with inhibitor at 4 μg/mL): 0.25 µg/mL
- MIC of cefixime (CFM) ([1]; with inhibitor at 4 μg/mL): 0.125 µg/mL
- MIC of ceftibuten (CTB) ([1]; with inhibitor at 4 μg/mL): 0.125 µg/mL
- MIC of cefalexin (LEX) ([2]; with inhibitor at 1 μg/mL): 0.5 µg/mL
- MIC of cefdinir (CDR) ([2]; with inhibitor at 1 μg/mL): 0.5 µg/mL
- MIC of cefixime (CFM) ([2]; with inhibitor at 1 μg/mL): 1 µg/mL
- MIC of ceftibuten (CTB) ([2]; with inhibitor at 1 μg/mL): 0.25 µg/mL
- MIC of cefalexin (LEX) ([2]; with inhibitor at 2 μg/mL): 0.5 µg/mL
- MIC of cefdinir (CDR) ([2]; with inhibitor at 2 μg/mL): 0.5 µg/mL
- MIC of cefixime (CFM) ([2]; with inhibitor at 2 μg/mL): 0.5 µg/mL
- MIC of ceftibuten (CTB) ([2]; with inhibitor at 2 μg/mL): 0.25 µg/mL
- MIC of cefalexin (LEX) ([2]; with inhibitor at 4 μg/mL): 0.5 µg/mL
- MIC of cefdinir (CDR) ([2]; with inhibitor at 4 μg/mL): 0.5 µg/mL
- MIC of cefixime (CFM) ([2]; with inhibitor at 4 μg/mL): 0.5 µg/mL
- MIC of ceftibuten (CTB) ([2]; with inhibitor at 4 μg/mL): 0.25 µg/mL
- MIC of cefalexin (LEX) ([3]; with inhibitor at 1 μg/mL): 0.5 µg/mL
- MIC of cefdinir (CDR) ([3]; with inhibitor at 1 μg/mL): 0.5 µg/mL
- MIC of cefixime (CFM) ([3]; with inhibitor at 1 μg/mL): 0.25 µg/mL
- MIC of ceftibuten (CTB) ([3]; with inhibitor at 1 μg/mL): 0.125 µg/mL
- MIC of cefalexin (LEX) ([3]; with inhibitor at 2 μg/mL): 0.5 µg/mL
- MIC of cefdinir (CDR) ([3]; with inhibitor at 2 μg/mL): 0.5 µg/mL
- MIC of cefixime (CFM) ([3]; with inhibitor at 2 μg/mL): 0.25 µg/mL
- MIC of ceftibuten (CTB) ([3]; with inhibitor at 2 μg/mL): 0.125 µg/mL
- MIC of cefalexin (LEX) ([3]; with inhibitor at 4 μg/mL): 0.25 µg/mL
- MIC of cefdinir (CDR) ([3]; with inhibitor at 4 μg/mL): 0.25 µg/mL
- MIC of cefixime (CFM) ([3]; with inhibitor at 4 μg/mL): 0.125 µg/mL
- MIC of ceftibuten (CTB) ([3]; with inhibitor at 4 μg/mL): 0.125 µg/mL
- MIC of cefalexin (LEX) ([4]; with inhibitor at 1 μg/mL): 2 µg/mL
- MIC of cefdinir (CDR) ([4]; with inhibitor at 1 μg/mL): 2 µg/mL
- MIC of cefixime (CFM) ([4]; with inhibitor at 1 μg/mL): 0.5 µg/mL
- MIC of ceftibuten (CTB) ([4]; with inhibitor at 1 μg/mL): 0.25 µg/mL
- MIC of cefalexin (LEX) ([4]; with inhibitor at 2 μg/mL): 1 µg/mL
- MIC of cefdinir (CDR) ([4]; with inhibitor at 2 μg/mL): 1 µg/mL
- MIC of cefixime (CFM) ([4]; with inhibitor at 2 μg/mL): 0.25 µg/mL
- MIC of ceftibuten (CTB) ([4]; with inhibitor at 2 μg/mL): 0.125 µg/mL
- MIC of cefalexin (LEX) ([4]; with inhibitor at 4 μg/mL): 0.5 µg/mL
- MIC of cefdinir (CDR) ([4]; with inhibitor at 4 μg/mL): 0.5 µg/mL
- MIC of cefixime (CFM) ([4]; with inhibitor at 4 μg/mL): 0.25 µg/mL
- MIC of ceftibuten (CTB) ([4]; with inhibitor at 4 μg/mL): 0.25 µg/mL
- MIC of cefalexin (LEX) ([5]; with inhibitor at 1 μg/mL): 0.25 µg/mL
- MIC of cefdinir (CDR) ([5]; with inhibitor at 1 μg/mL): 0.25 µg/mL
- MIC of cefixime (CFM) ([5]; with inhibitor at 1 μg/mL): 0.125 µg/mL
- MIC of ceftibuten (CTB) ([5]; with inhibitor at 1 μg/mL): 0.06 µg/mL
- MIC of cefalexin (LEX) ([5]; with inhibitor at 2 μg/mL): 0.25 µg/mL
- MIC of cefdinir (CDR) ([5]; with inhibitor at 2 μg/mL): 0.25 µg/mL
- MIC of cefixime (CFM) ([5]; with inhibitor at 2 μg/mL): 0.125 µg/mL
- MIC of ceftibuten (CTB) ([5]; with inhibitor at 2 μg/mL): 0.06 µg/mL
- MIC of cefalexin (LEX) ([5]; with inhibitor at 4 μg/mL): 0.25 µg/mL
- MIC of cefdinir (CDR) ([5]; with inhibitor at 4 μg/mL): 0.25 µg/mL
- MIC of cefixime (CFM) ([5]; with inhibitor at 4 μg/mL): 0.06 µg/mL
- MIC of ceftibuten (CTB) ([5]; with inhibitor at 4 μg/mL): 0.06 µg/mL
- MIC of cefalexin (LEX) ([6]; with inhibitor at 1 μg/mL): 0.5 µg/mL
- MIC of cefdinir (CDR) ([6]; with inhibitor at 1 μg/mL): 0.5 µg/mL
- MIC of cefixime (CFM) ([6]; with inhibitor at 1 μg/mL): 0.25 µg/mL
- MIC of ceftibuten (CTB) ([6]; with inhibitor at 1 μg/mL): 0.125 µg/mL
- MIC of cefalexin (LEX) ([6]; with inhibitor at 2 μg/mL): 0.5 µg/mL
- MIC of cefdinir (CDR) ([6]; with inhibitor at 2 μg/mL): 0.5 µg/mL
- MIC of cefixime (CFM) ([6]; with inhibitor at 2 μg/mL): 0.125 µg/mL
- MIC of ceftibuten (CTB) ([6]; with inhibitor at 2 μg/mL): 0.125 µg/mL
- MIC of cefalexin (LEX) ([6]; with inhibitor at 4 μg/mL): 0.5 µg/mL
- MIC of cefdinir (CDR) ([6]; with inhibitor at 4 μg/mL): 0.5 µg/mL
- MIC of cefixime (CFM) ([6]; with inhibitor at 4 μg/mL): 0.125 µg/mL
- MIC of ceftibuten (CTB) ([6]; with inhibitor at 4 μg/mL): 0.125 µg/mL
- MIC of cefalexin (LEX) ([7]; with inhibitor at 1 μg/mL): 0.125 µg/mL
- MIC of cefdinir (CDR) ([7]; with inhibitor at 1 μg/mL): 0.125 µg/mL
- MIC of cefixime (CFM) ([7]; with inhibitor at 1 μg/mL): 0.125 µg/mL
- MIC of ceftibuten (CTB) ([7]; with inhibitor at 1 μg/mL): 0.125 µg/mL
- MIC of cefalexin (LEX) ([7]; with inhibitor at 2 μg/mL): 0.125 µg/mL
- MIC of cefdinir (CDR) ([7]; with inhibitor at 2 μg/mL): 0.125 µg/mL
- MIC of cefixime (CFM) ([7]; with inhibitor at 2 μg/mL): 0.06 µg/mL
- MIC of ceftibuten (CTB) ([7]; with inhibitor at 2 μg/mL): 0.06 µg/mL
- MIC of cefalexin (LEX) ([7]; with inhibitor at 4 μg/mL): 0.125 µg/mL
- MIC of cefdinir (CDR) ([7]; with inhibitor at 4 μg/mL): 0.125 µg/mL
- MIC of cefixime (CFM) ([7]; with inhibitor at 4 μg/mL): 0.06 µg/mL
- MIC of ceftibuten (CTB) ([7]; with inhibitor at 4 μg/mL): 0.06 µg/mL
- MIC of cefalexin (LEX) ([8]; with inhibitor at 1 μg/mL): 1 µg/mL
- MIC of cefdinir (CDR) ([8]; with inhibitor at 1 μg/mL): 1 µg/mL
- MIC of cefixime (CFM) ([8]; with inhibitor at 1 μg/mL): 0.25 µg/mL
- MIC of ceftibuten (CTB) ([8]; with inhibitor at 1 μg/mL): 0.03 µg/mL
- MIC of cefalexin (LEX) ([8]; with inhibitor at 2 μg/mL): 0.5 µg/mL
- MIC of cefdinir (CDR) ([8]; with inhibitor at 2 μg/mL): 0.5 µg/mL
- MIC of cefixime (CFM) ([8]; with inhibitor at 2 μg/mL): 0.125 µg/mL
- MIC of ceftibuten (CTB) ([8]; with inhibitor at 2 μg/mL): 0.0149 µg/mL
- MIC of cefalexin (LEX) ([8]; with inhibitor at 4 μg/mL): 0.5 µg/mL
- MIC of cefdinir (CDR) ([8]; with inhibitor at 4 μg/mL): 0.5 µg/mL
- MIC of cefixime (CFM) ([8]; with inhibitor at 4 μg/mL): 0.125 µg/mL
- MIC of ceftibuten (CTB) ([8]; with inhibitor at 4 μg/mL): 0.0149 µg/mL
- MIC of cefalexin (LEX) ([9]; with inhibitor at 1 μg/mL): 0.5 µg/mL
- MIC of cefdinir (CDR) ([9]; with inhibitor at 1 μg/mL): 0.5 µg/mL
- MIC of cefixime (CFM) ([9]; with inhibitor at 1 μg/mL): 2 µg/mL
- MIC of ceftibuten (CTB) ([9]; with inhibitor at 1 μg/mL): 0.06 µg/mL
- MIC of cefalexin (LEX) ([9]; with inhibitor at 2 μg/mL): 0.25 µg/mL
- MIC of cefdinir (CDR) ([9]; with inhibitor at 2 μg/mL): 0.25 µg/mL
- MIC of cefixime (CFM) ([9]; with inhibitor at 2 μg/mL): 0.5 µg/mL
- MIC of ceftibuten (CTB) ([9]; with inhibitor at 2 μg/mL): 0.06 µg/mL
- MIC of cefalexin (LEX) ([9]; with inhibitor at 4 μg/mL): 0.125 µg/mL
- MIC of cefdinir (CDR) ([9]; with inhibitor at 4 μg/mL): 0.125 µg/mL
- MIC of cefixime (CFM) ([9]; with inhibitor at 4 μg/mL): 0.5 µg/mL
- MIC of ceftibuten (CTB) ([9]; with inhibitor at 4 μg/mL): 0.06 µg/mL
- MIC of cefalexin (LEX) ([10]; with inhibitor at 1 μg/mL): 0.5 µg/mL
- MIC of cefdinir (CDR) ([10]; with inhibitor at 1 μg/mL): 0.5 µg/mL
- MIC of cefixime (CFM) ([10]; with inhibitor at 1 μg/mL): 4 µg/mL
- MIC of ceftibuten (CTB) ([10]; with inhibitor at 1 μg/mL): 0.25 µg/mL
- MIC of cefalexin (LEX) ([10]; with inhibitor at 2 μg/mL): 1 µg/mL
- MIC of cefdinir (CDR) ([10]; with inhibitor at 2 μg/mL): 1 µg/mL
- MIC of cefixime (CFM) ([10]; with inhibitor at 2 μg/mL): 4 µg/mL
- MIC of ceftibuten (CTB) ([10]; with inhibitor at 2 μg/mL): 0.25 µg/mL
- MIC of cefalexin (LEX) ([10]; with inhibitor at 4 μg/mL): 0.5 µg/mL
- MIC of cefdinir (CDR) ([10]; with inhibitor at 4 μg/mL): 0.5 µg/mL
- MIC of cefixime (CFM) ([10]; with inhibitor at 4 μg/mL): 1 µg/mL
